Results reported in patent US20190031599A1, “INDANE DERIVATIVES AS MGLUR7 MODULATORS” (Takeda Pharmaceutical Company Limited, priority 2016, published 2019).

Each compound was assayed against T1, human mGluR7 (Homo sapiens, UniProt Q14831) (assay: mGluR7 assay: CRE-directed luciferase reporter gene assay, reduction of forskolin stimulated cAMP production). Settings: stable CHO cell line expressing the CRE-luc reporter and human mGluR7 genes; decrease of forskolin stimulated luminescence; 10-point concentration-response, duplicate wells.
T1 construct: expressed in transfected cells
Assay type: cell-based
Summary of the method: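 Stable CHO cell line co-expressing human mGluR7 and a CRE-luciferase reporter; compounds preincubated 15 min at 37 °C, then forskolin added and incubated 5 h at 37 °C. 10-point half-log concentration-response in duplicate, normalised to forskolin-alone (max) and forskolin plus tool mGluR7 agonist (min) controls.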

T1 sequence (Q14831 35-915): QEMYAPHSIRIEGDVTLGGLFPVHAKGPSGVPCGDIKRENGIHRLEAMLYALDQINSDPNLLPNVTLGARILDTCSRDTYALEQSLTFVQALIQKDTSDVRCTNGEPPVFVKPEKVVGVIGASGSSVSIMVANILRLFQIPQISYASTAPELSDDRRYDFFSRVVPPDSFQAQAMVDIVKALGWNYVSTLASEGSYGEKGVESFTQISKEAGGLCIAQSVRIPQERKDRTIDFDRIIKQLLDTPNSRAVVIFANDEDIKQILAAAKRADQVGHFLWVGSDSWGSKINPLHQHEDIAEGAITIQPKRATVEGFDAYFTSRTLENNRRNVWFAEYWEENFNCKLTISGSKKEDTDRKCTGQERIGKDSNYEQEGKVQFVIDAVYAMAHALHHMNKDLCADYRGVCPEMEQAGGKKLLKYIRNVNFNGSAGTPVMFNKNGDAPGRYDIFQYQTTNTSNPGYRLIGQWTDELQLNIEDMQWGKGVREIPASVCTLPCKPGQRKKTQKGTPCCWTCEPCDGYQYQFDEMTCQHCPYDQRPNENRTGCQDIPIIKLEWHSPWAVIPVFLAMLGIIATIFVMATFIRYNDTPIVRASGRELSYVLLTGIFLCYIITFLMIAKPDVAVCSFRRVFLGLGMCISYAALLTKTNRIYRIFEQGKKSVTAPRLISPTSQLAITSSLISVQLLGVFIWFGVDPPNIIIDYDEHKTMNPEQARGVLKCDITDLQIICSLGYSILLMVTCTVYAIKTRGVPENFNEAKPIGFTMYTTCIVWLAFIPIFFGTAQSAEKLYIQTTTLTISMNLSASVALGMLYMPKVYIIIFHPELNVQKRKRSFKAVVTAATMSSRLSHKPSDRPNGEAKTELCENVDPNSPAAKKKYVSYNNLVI

Question: With CC(C(=O)N[C@H]1Cc2ccccc2[C@@H]1NC(=O)OC(C)(C)C)c1ccc(OC(F)F)cc1 (stereo partly drawn) [Example 151, tert-butyl N-[(1S,2S)-2-{2-[4-(difluoromethoxy)phenyl]propanamido}-2,3-dihydro-1H-inden-1-yl]carbamate] as the compound, how does the EC50 read?
Answer: The EC50 was 441 nM.

Question: With COc1cc(F)ccc1C(C)C(=O)N[C@H]1Cc2ccccc2[C@@H]1NC(=O)OC(C)(C)C (stereo partly drawn) [Example 152, tert-butyl N-[(1S,2S)-2-[2-(4-fluoro-2-methoxyphenyl)propanamido]-2,3-dihydro-1H-inden-1-yl]carbamate] as the compound, how does the EC50 read?
Answer: Its EC50 is 183 nM.

Question: With CC(C(=O)N[C@H]1Cc2ccccc2[C@@H]1NC(=O)OC(C)(C)C)c1ccc(F)cc1Cl (stereo partly drawn) [Example 153, tert-butyl N-[(1S,2S)-2-[2-(2-chloro-4-fluorophenyl)propanamido]-2,3-dihydro-1H-inden-1-yl]carbamate] as the compound, how does the EC50 read?
Answer: Its EC50 is 63 nM.

Question: With CC(C(=O)N[C@H]1Cc2ccccc2[C@@H]1NC(=O)OC(C)(C)C)c1ccc(F)cc1C(F)(F)F (stereo partly drawn) [Example 154, tert-butyl N-[(1S,2S)-2-{2-[4-fluoro-2-(trifluoromethyl)phenyl]propanamido}-2,3-dihydro-1H-inden-1-yl]carbamate] as the compound, how does the EC50 read?
Answer: Its EC50 is 326 nM.

Question: How did the EC50 turn out when CN[C@@H]1c2ccccc2C[C@H]1NC(=O)[C@H](C)c1ccc(F)cc1 [Example 155, (2R)-2-(4-fluorophenyl)-N-[(1R,2R)-1-(methylamino)-2,3-dihydro-1H-inden-2-yl]propanamide] was run?
Answer: The EC50 was 2220 nM.

Question: For CN[C@H]1c2ccccc2C[C@@H]1NC(=O)[C@H](C)c1ccc(F)cc1 [Example 157, (2R)-2-(4-fluorophenyl)-N-[(1S,2S)-1-(methylamino)-2,3-dihydro-1H-inden-2-yl]propanamide], which EC50 is on record?
Answer: Its EC50 is 1380 nM.

Question: For CN[C@@H]1c2ccccc2C[C@@H]1NC(=O)[C@@H](C)c1ccc(F)cc1 [Example 160, (2S)-2-(4-fluorophenyl)-N-[(1R,2S)-1-(methylamino)-2,3-dihydro-1H-inden-2-yl]propanamide], which EC50 is on record?
Answer: Its EC50 is 5940 nM.
